# Structures can show the parent of a compound that is named as a salt.
# What was measured:
# [1] = biological target: T1, recombinant full length human estrogen receptor alpha (ERα) (Homo sapiens, UniProt P03372); assay: [3H]-ketamine saturation radioligand binding assay; details: read-out: KD of [3H]-ketamine binding to ERα (saturation binding); nine concentrations of [3H]-ketamine, 4 nM to 400 nM; non-linear regression
# [2] = biological target: T1, recombinant full length human estrogen receptor alpha (ERα); assay: [3H]-ketamine displacement assay; assay type: binding
# [3] = brains of female than in male mice; cited from earlier work
# [4] = biological target: T1, recombinant full length human estrogen receptor alpha (ERα); details: 1 nM [3H]-estradiol; competitor 4 nM - 40 mM
# T1 sequence (P03372 whole entry): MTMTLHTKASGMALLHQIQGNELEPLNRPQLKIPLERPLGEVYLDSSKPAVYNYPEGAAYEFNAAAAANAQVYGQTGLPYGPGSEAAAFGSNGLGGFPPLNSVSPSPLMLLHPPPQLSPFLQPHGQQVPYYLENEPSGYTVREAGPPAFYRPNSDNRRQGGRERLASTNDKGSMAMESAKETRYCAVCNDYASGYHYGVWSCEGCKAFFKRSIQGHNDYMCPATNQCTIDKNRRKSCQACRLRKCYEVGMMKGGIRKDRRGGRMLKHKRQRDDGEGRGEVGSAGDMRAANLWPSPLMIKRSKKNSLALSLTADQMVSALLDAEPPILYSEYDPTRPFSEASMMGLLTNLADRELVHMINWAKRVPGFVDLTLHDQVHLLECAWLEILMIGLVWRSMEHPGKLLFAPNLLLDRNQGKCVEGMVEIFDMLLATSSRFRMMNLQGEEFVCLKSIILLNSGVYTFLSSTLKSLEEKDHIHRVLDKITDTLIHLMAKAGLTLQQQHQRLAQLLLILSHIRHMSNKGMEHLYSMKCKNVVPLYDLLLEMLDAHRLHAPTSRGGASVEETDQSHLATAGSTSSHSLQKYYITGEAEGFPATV
SMILES,IC50 [2] [µM],further results
"CNC1(c2ccccc2Cl)CCCCC1=O (racemic) [[^3H]-ketamine, (±)-Ketamine [N-methyl-^3H] hydrochloride]",–,Kd [1]: 344 nM
"N[C@@]1(c2ccccc2Cl)CCC[C@@H](O)C1=O [(2R,6R)-HNK]",3.4 ± 0.2,–
"N[C@]1(c2ccccc2Cl)CCC[C@H](O)C1=O [(2S,6S)-HNK]",3.53 ± 0.2,–
"N[C@@]1(c2ccccc2Cl)CCC[C@@H](O)C1=O [(2S,6S;2R,6R)-HNK, (2S,6S;2R,6R)-hydroxynorketamine]",–,"brain concentrations, female versus male mice [3]: three fold higher"
"CNC1(c2ccccc2Cl)CCCCC1=O (stereo not drawn) [ketamine, Ketamine hydrochloride]",2.31 ± 0.1,displacement of [3H]-estradiol binding to ERα (in words) [4]: failed to displace

# — article PMC5960634 (Biochemical pharmacology, 2018)
